pIC50: −log10 of the molar value.
Legend:
HDAC1 = molecular target: T1, HDAC1 (Homo sapiens, UniProt Q13547); assay: Inhibition of HDAC1 activity (HDAC1 fluorimetric drug discovery assay kit); type: biochemical; details: test concentrations 100, 1000 and 10000 nM; 37° C., 60 minutes
T1 construct: purchased Enzolifesciences BML-AK511
Experimental: (§1) Assays were performed using a HDAC1 fluorimetric drug discovery assay kit (Enzolifesciences: BML-AK511) and a HDAC6 human recombinant (Calbiochem: 382180). The assay mixture of the kit was treated with a test compound at concentrations of 100, 1000 and 10000 nM for HDAC1 assay and concentrations of 0.1, 1, 10, 100 and 1000 nM for HDAC6 assay. The treated assay mixture was allowed to react at 37° C. for 60 minutes, and then was treated with a developer and allowed to stand at 37° C. for 30 minutes, followed by quantification of the fluorescence.

HDAC6 human recombinant = molecular target: T2, HDAC6 human recombinant (Homo sapiens, UniProt Q9UBN7); assay: Inhibition of HDAC6 activity (fluorimetric assay); type: biochemical; details: test concentrations 0.1, 1, 10, 100 and 1000 nM; 37° C., 60 minutes
T2 construct: purchased Calbiochem 382180
T2 sequence (Q9UBN7 1-1215): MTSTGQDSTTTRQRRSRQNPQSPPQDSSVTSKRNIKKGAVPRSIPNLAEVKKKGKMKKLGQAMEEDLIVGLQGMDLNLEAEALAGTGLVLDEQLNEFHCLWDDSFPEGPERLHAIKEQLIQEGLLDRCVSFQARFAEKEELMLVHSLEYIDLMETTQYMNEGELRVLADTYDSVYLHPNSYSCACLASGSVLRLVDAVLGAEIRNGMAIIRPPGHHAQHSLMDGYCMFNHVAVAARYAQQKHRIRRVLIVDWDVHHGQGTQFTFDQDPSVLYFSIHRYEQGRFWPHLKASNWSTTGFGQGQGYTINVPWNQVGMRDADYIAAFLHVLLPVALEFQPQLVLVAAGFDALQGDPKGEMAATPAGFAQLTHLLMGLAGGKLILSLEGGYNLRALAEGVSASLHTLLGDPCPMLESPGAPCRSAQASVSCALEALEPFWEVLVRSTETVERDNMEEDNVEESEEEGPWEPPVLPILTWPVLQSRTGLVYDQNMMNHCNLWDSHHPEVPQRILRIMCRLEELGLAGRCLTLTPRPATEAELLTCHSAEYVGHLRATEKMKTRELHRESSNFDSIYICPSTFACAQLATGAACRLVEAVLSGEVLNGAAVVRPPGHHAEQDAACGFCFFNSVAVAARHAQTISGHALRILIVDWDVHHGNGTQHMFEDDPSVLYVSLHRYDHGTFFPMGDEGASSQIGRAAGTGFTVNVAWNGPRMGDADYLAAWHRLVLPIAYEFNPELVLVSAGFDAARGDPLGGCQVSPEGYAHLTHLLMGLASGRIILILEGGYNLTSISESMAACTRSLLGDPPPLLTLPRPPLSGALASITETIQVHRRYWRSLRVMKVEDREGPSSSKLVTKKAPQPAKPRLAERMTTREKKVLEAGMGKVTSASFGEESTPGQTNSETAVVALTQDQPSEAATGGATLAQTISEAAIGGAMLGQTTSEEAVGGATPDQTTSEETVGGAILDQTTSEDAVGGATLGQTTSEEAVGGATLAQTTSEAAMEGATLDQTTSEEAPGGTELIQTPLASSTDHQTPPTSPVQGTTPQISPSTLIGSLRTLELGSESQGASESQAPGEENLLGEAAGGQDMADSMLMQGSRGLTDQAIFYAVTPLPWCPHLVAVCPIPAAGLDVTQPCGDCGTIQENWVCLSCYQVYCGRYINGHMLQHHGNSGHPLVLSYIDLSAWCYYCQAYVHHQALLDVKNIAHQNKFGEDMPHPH
Experimental: as §1

T1 sequence (Q13547 whole entry): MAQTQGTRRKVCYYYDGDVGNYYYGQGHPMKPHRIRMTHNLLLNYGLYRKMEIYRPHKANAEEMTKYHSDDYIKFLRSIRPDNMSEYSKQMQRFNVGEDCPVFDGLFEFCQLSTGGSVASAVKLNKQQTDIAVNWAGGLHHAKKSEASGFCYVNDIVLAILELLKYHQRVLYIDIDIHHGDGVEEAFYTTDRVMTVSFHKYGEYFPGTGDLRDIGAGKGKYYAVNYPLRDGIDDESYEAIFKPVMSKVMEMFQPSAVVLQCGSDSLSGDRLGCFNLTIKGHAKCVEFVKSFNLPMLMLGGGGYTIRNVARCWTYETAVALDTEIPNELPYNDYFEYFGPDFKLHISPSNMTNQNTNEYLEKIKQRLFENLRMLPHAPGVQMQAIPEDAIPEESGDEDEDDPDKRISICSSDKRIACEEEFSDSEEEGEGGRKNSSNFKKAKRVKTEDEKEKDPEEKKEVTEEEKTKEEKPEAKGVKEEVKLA

| pIC50 (HDAC1) | pIC50 (HDAC6 human recombinant) | SMILES |
| --- | --- | --- |
| 6.11 | 8.00 | O=C(NO)c1ccc(Cn2ccc3c(-c4ccc(CN5CCOCC5)cc4)ccnc32)cc1 [Compound 762, N-hydroxy-4-((4-(4-(morpholinomethyl)phenyl)-1H-pyrrolo[2,3-b]pyridin-1-yl)methyl)benzamide] |
| 5.38 | 6.52 | CC(C)(F)CN1CCN(Cc2ccc(-c3ccnc4c3ccn4Cc3ccc(C(=O)NO)cc3)cc2)CC1 [Compound 763, 4-((4-(4-((4-(2-fluoro-2-methylpropyl)piperazin-1-yl)methyl)phenyl)-1H-pyrrolo[2,3-b]pyridin-1-yl)methyl)-N-hydroxybenzamide] |
| 5.49 | 7.04 | CCC(F)(CC)CN1CCN(c2ccnc3c2ccn3Cc2ccc(C(=O)NO)cc2)CC1 [Compound 764, 4-((4-(4-(2-ethyl-2-fluorobutyl)piperazin-1-yl)-1H-pyrrolo[2,3-b]pyridin-1-yl)methyl)-N-hydroxybenzamide] |
| 5.61 | 7.74 | O=C(NO)c1ccc(Cn2ccc3cc(C4CCN(Cc5cccc(F)c5)CC4)cnc32)cc1 [Compound 781, 4-((5-(1-(3-fluorobenzyl)piperidin-4-yl)-1H-pyrrolo[2,3-b]pyridin-1-yl)methyl)-N-hydroxybenzamide] |
| 6.24 | 8.42 | CN1CCN(Cc2cccc(-c3ccnc4c3ccn4Cc3ccc(C(=O)NO)cc3)c2)CC1 [Compound 799, N-hydroxy-4-((4-(3-((4-methylpiperazin-1-yl)methyl)phenyl)-1H-pyrrolo[2,3-b]pyridin-1-yl)methyl)benzamide] |
| 5.70 | 7.24 | O=C(NO)c1ccc(Cn2ccc3cc(C4CCN(Cc5ccccc5)CC4)cnc32)cc1 [Compound 804, 4-((5-(1-benzylpiperidin-4-yl)-1H-pyrrolo[2,3-b]pyridin-1-yl)methyl)-N-hydroxybenzamide] |
| 6.17 | 8.17 | O=C(NO)c1ccc(Cn2ccc3cc(N4CCN(Cc5ccccc5)CC4)cnc32)cc1 [Compound 806, 4-((5-(4-benzylpiperazin-1-yl)-1H-pyrrolo[2,3-b]pyridin-1-yl)methyl)-N-hydroxybenzamide] |
| 5.72 | 7.89 | COc1ccc(CN2CCC(c3cnc4c(ccn4Cc4ccc(C(=O)NO)cc4)c3)CC2)cc1 [Compound 830, N-hydroxy-4-((5-(1-(4-methoxybenzyl)piperidin-4-yl)-1H-pyrrolo[2,3-b]pyridin-1-yl)methyl)benzamide] |
| 5.72 | 7.76 | O=C(NO)c1ccc(Cn2ccc3cc(C4CCN(Cc5ccccc5F)CC4)cnc32)cc1 [Compound 839, 4-((5-(1-(2-fluorobenzyl)piperidin-4-yl)-1H-pyrrolo[2,3-b]pyridin-1-yl)methyl)-N-hydroxybenzamide] |
| 6.21 | 8.39 | O=C(NO)c1ccc(Cn2ccc3cc(C4CCN(Cc5cccnc5)CC4)cnc32)cc1 [Compound 840, N-hydroxy-4-((5-(1-(pyridin-3-ylmethyl)piperidin-4-yl)-1H-pyrrolo[2,3-b]pyridin-1-yl)methyl)benzamide] |
| 6.27 | 8.16 | O=C(NO)c1ccc(Cn2ccc3cc(C4CCN(Cc5ccncc5)CC4)cnc32)cc1 [Compound 841, N-hydroxy-4-((5-(1-(pyridin-4-ylmethyl)piperidin-4-yl)-1H-pyrrolo[2,3-b]pyridin-1-yl)methyl)benzamide] |
| 5.75 | 7.85 | COc1cccc(CN2CCC(c3cnc4c(ccn4Cc4ccc(C(=O)NO)cc4)c3)CC2)c1 [Compound 842, N-hydroxy-4-((5-(1-(3-methoxybenzyl)piperidin-4-yl)-1H-pyrrolo[2,3-b]pyridin-1-yl)methyl)benzamide] |
| 6.11 | 7.85 | O=C(NO)c1ccc(Cn2ccc3cc(C4CCN(Cc5ccc(F)cc5)CC4)cnc32)cc1 [Compound 843, 4-((5-(1-(4-fluorobenzyl)piperidin-4-yl)-1H-pyrrolo[2,3-b]pyridin-1-yl)methyl)-N-hydroxybenzamide] |
| 5.85 | 8.24 | COc1cccc(CN2CCN(c3ccnc4c3ccn4Cc3ccc(C(=O)NO)cc3)CC2)c1 [Compound 846, N-hydroxy-4-((4-(4-(3-methoxybenzyl)piperazin-1-yl)-1H-pyrrolo[2,3-b]pyridin-1-yl)methyl)benzamide] |

Second part, the compound before the results:

| SMILES | pIC50 (HDAC1) | pIC50 (HDAC6 human recombinant) |
| --- | --- | --- |
| CC(C)(C)OC(=O)N1CC=C(c2cc3c(ccn3Cc3ccc(C(=O)NO)cc3)cn2)CC1 [Compound 783, tert-butyl 4-(1-(4-(hydroxycarbamoyl)benzyl)-1H-pyrrolo[3,2-c]pyridin-6-yl)-5,6-dihydropyridine-1(2H)-carboxylate] | 6.35 | 7.92 |
| CC(C)(C)OC(=O)N1CC=C(c2ccnc3c2ccn3Cc2ccc(C(=O)NO)cc2)CC1 [Compound 784] | 6.03 | 7.80 |
| CC(C)(C)OC(=O)N1CC=C(c2cnc3ccn(Cc4ccc(C(=O)NO)cc4)c3c2)CC1 [Compound 786, tert-butyl 4-(1-(4-(hydroxycarbamoyl)benzyl)-1H-pyrrolo[3,2-b]pyridin-6-yl)-5,6-dihydropyridine-1(2H)-carboxylate] | 6.21 | 8.24 |
| O=C(NO)c1ccc(Cn2ccc3cc(N4CCOCC4)cnc32)cc1 [Compound 787, N-hydroxy-4-((5-morpholino-1H-pyrrolo[2,3-b]pyridin-1-yl)methyl)benzamide] | 5.56 | 7.60 |
| CC1CCN(c2cnc3c(ccn3Cc3ccc(C(=O)NO)cc3)c2)CC1 [Compound 805, N-hydroxy-4-((5-(4-methylpiperidin-1-yl)-1H-pyrrolo[2,3-b]pyridin-1-yl)methyl)benzamide] | 5.79 | 7.42 |
| CC1CN(c2cnc3c(ccn3Cc3ccc(C(=O)NO)cc3)c2)CC(C)O1 (centres unmarked) [Compound 807, 4-((5-(2,6-dimethylmorpholino)-1H-pyrrolo[2,3-b]pyridin-1-yl)methyl)-N-hydroxybenzamide] | 6.41 | 7.98 |
| CC(C)(C)OC(=O)NC1CCN(c2cnc3c(ccn3Cc3ccc(C(=O)NO)cc3)c2)CC1 [Compound 809, tert-butyl (1-(1-(4-(hydroxycarbamoyl)benzyl)-1H-pyrrolo[2,3-b]pyridin-5-yl)piperidin-4-yl)carbamate] | 5.43 | 7.52 |
| CC(C)(O)CN1CCC(c2ccnc3c2ccn3Cc2ccc(C(=O)NO)cc2)CC1 [Compound 812, N-hydroxy-4-((4-(1-(2-hydroxy-2-methylpropyl)piperidin-4-yl)-1H-pyrrolo[2,3-b]pyridin-1-yl)methyl)benzamide] | 6.82 | 8.30 |
| O=C(NO)c1ccc(Cn2ccc3cc(C4CCN(C(=O)c5cccc(F)c5)CC4)cnc32)cc1 [Compound 831, 4-((5-(1-(3-fluorobenzoyl)piperidin-4-yl)-1H-pyrrolo[2,3-b]pyridin-1-yl)methyl)-N-hydroxybenzamide] | 5.91 | 8.15 |
| O=C(NO)c1ccc(Cn2ccc3cc(C4CCN(Cc5ccccn5)CC4)cnc32)cc1 [Compound 844] | 6.26 | 8.47 |
| O=C(NO)c1ccc(Cn2ccc3cc(C4CCN(Cc5noc(C(F)(F)F)n5)CC4)cnc32)cc1 [Compound 845, N-hydroxy-4-((5-(1-((5-(trifluoromethyl)-1,2,4-oxadiazol-3-yl)methyl)piperidin-4-yl)-1H-pyrrolo[2,3-b]pyridin-1-yl)methyl)benzamide] | 6.52 | 8.92 |

Source: patent US9650379B2 (CHONG KUN DANG PHARMACEUTICAL CORP., priority 2013, dated 2017)
